From paper PMC9605072, “Guanidine Derivatives of Quinazoline-2,4(1H,3H)-Dione as NHE-1 Inhibitors and Anti-Inflammatory Agents” (Life, 2022) come the findings set out here.

The test system of one series is rabbit platelets. Description: ADP-induced platelet aggregation assay. In kind it is cell-based. To be noted: Oryctolagus cuniculus, m ± SD, n = 5. How it is done:
Platelet aggregation was assessed on a two-channel laser analyzer “BIOLA-220 LA” (Russia) as described previously using rabbit platelets.

For series [1], the system named is LPS-stimulated C57bl/6j peritoneal macrophages. The series is described as follows: LPS-induced nitric oxide synthesis in primary peritoneal macrophages (Griess). In kind it is cell-based, mice. To be noted: Mus musculus, Peritoneal macrophage, LPS 100 ng/mL, 22 h incubation, n = 3; for IC50: read-out: NO Synthesis IC50 ± SE. How it is done:
(§1) Primary C57bl/6j murine macrophages were elicited with intraperitoneal injection of 3% peptone solution as per the standard procedure. Stimulation of inflammatory response was performed with E. coli O127:B8 LPS (100 ng/mL final concentration).
(§2) Nitric oxide was determined in culture supernatants as a nitrite anion with a standard Griess reagent after 22 h of incubation with test compounds at a wavelength of 550 nm with a microplate reader Infinite M200 PRO (Tecan GmbH, Grodig, Austria). Concentrations of IL-6 and TNF- α in cell supernatants were quantified with commercial ELISA kits according to the manufacturer’s instructions (Cloud-clone Corp., Katy, TX, USA).
(§3) Given our primary focus on the development of agents against cytokine-mediated tissue damage, we evaluated the target compounds as inhibitors of pro-inflammatory macrophage activation. Primary peritoneal macrophages were isolated from C57bl/6j mice, pooled, and stimulated with E. coli LPS as TLR4 agonist. Pro-inflammatory activation was assessed as nitric oxide (NO) synthesis and interleukin-6 (IL-6) secretion. The cytotoxicity of the compounds was monitored in parallel using the lactate dehydrogenase assay.
(In general: Nitrite, measured by Griess reagent, commonly stands in for NO production.)

In another series the test system is rat intraocular pressure. Description: Intraocular pressure study (TonoVet). The class given is in vivo. Particulars: rats, 0.4% eye drops; for Max IOP Reduction: m ± SD, n = 5; for IOP-lowering activity reduction relative to 4a: vs 4a. How it is done: Intraocular pressure was measured on 75 adult outbred rats of both sexes with a TonoVet device (Finland) as reported by us previously.
To access the influence on rat eye aqueous humor formation, the studied compounds were administered as 0.4% eye drops. […] Introduction of 5-bromine (4b) or acyclic guanidine N^1 , N^3 -side chains (3a) led to 2- and 3-fold activity reduction, respectively.

Series [2] in a line: Cytotoxicity, lactate dehydrogenase (LDH) assay. The class given is cell-based, mice. To be noted: C57bl/6j, mouse, primary peritoneal macrophages stimulated with E. coli LPS; LPS-stimulated macrophages; n = 3; read-out: LDH CC50 ± SE. How it is done:
(§4) The activity of lactate dehydrogenase (LDH) in a cell culture medium was determined as reported by us previously with a microplate reader Infinite M200 PRO (Tecan, Austria).
as §3
(§5) In an attempt to identify safer alternatives to steroid anti-inflammatory agents, it is mandatory to evaluate lead compounds for immunodepressant activity. To do so, we determined the influence of compound 4a on macrophage phagocytosis after 72 h of incubation. Cell viability was monitored in parallel via the LDH assay.

In a further series the test system is male ICR mice. The series is described as follows: Tail suspension test (antidepressant activity). In kind it is in vivo. To be noted: mean ± SD, n = 6, vehicle 264.8 ± 11.6 s. How it is done: Antidepressant activity was determined on 36 male ICR mice weighing 22–25 g as described in [14] using the Panlab LE808 apparatus.
The tail suspension test was used to assess the antidepressant activity of the most-active NHE-1 inhibitors.

For another series, the target named is T1, rabbit platelet NHE-1 (Oryctolagus cuniculus, UniProt P23791).
T1 construct: endogenous in cells; host or cells: rabbit platelets
The series is described as follows: NHE-1 inhibition assay (rabbit platelets, laser aggregometer). In kind it is cell-based. Particulars: rabbit platelets; for inhibition at 0.01 µM: 10 nM, m ± SD, n = 6. How it is done:
Inhibition of rabbit platelet NHE-1 was determined according to the method of [8, 9] in our modification, which was reported by us previously using the laser aggregometer BIOLA-220 LA (Russia).
Target compounds were evaluated as inhibitors of rabbit platelet NHE-1 (Table 1). It was shown that the substitution of H^5 with bromine decreased the activity of compounds 3b and 4b, indicating possible steric limitations of the binding site.

Series [3] relates to LPS-stimulated C57bl/6j peritoneal macrophages. Description: LPS-induced IL-6 secretion in primary peritoneal macrophages (ELISA). In kind it is cell-based, mice. Particulars: Mus musculus, Peritoneal macrophage; LPS 100 ng/mL; n = 3; read-out: IL-6 Secretion IC50 ± SE. How it is done:
as §1, §2, §3
On the technique in general: ELISA stands for enzyme-linked immunosorbent assay.

Series [4] has as its system C57bl/6j peritoneal macrophages. The series is described as follows: Macrophage phagocytosis assay. The class given is cell-based, mice. How it is done:
The phagocytic activity of peritoneal macrophages was assessed after staining with Azur-Eosin with Romanovsky’s modifications as reported by us previously with a light microscopy using a Mikmed-6 (LOMO, Saint Petersburg, Russia) equipped with a digital camera.
as §5
(Figure 3). The mean number of phagocytosed particles per cell was […]. […] Macrophage spreading was registered and visually scored as a phenotypic marker of cell activation phagocytic capacity.

For series [5] the test system is unchanged. The series is described as follows: Cytotoxicity, lactate dehydrogenase (LDH) assay. In kind it is cell-based, mice. To be noted: 72 h of incubation, in parallel to phagocytosis. How it is done:
as §4, §3, §5

A further series has as its system C57bl/6j mice. Description: LPS-induced acute lung injury model. The class given is in vivo. Particulars: dexamethasone 5 mg/kg i.p. How it is done:
Prior to the experiment, C57BL/6J mice were randomized according to body weight and motor activity in an open field test. […] Animals of the control group were injected with an equal volume of the vehicle. Animals were anesthetized with isoflurane inhalation until the breathing rate decreased 1 h later. Mice were suspended by the front incisors on an inclined surgical table; the tongue was pulled out with narrow curved tweezers, and 1 mg/mL of E. coli O127:B8 LPS (Sigma-Aldrich, Israel) in 1 mL/kg sterile saline was injected into the back of the oropharynx to allow aspiration. Intact animals received an equal volume of sterile saline in a similar way.
The open field test was performed with the NPO “Open Science” (Russia) arena of 44 cm diameter and 32 cm wall height under 300 lux lighting as reported by us previously.
Mice were anesthetized with 500 mg/kg chloral hydrate (Sigma-Aldrich, Germany) intraperitoneally 24 h after LPS administration. Blood and bronchoalveolar lavage (BAL) sampling was performed as described in [13]. Leukocyte counts and the lung permeability index were determined as described by us previously.
Histological and immunohistological assessment of tissue sections was performed in a semi-quantitative way on paraffin sections after hematoxylin and eosin staining with a light microscope (Zeiss, Germany) with double-blinding. The degree of inflammation was determined as previously reported.
Lung injury was assessed 24 h later based on behavioral, biochemical, cytological, and morphological alterations.

T1 sequence (P23791 whole entry): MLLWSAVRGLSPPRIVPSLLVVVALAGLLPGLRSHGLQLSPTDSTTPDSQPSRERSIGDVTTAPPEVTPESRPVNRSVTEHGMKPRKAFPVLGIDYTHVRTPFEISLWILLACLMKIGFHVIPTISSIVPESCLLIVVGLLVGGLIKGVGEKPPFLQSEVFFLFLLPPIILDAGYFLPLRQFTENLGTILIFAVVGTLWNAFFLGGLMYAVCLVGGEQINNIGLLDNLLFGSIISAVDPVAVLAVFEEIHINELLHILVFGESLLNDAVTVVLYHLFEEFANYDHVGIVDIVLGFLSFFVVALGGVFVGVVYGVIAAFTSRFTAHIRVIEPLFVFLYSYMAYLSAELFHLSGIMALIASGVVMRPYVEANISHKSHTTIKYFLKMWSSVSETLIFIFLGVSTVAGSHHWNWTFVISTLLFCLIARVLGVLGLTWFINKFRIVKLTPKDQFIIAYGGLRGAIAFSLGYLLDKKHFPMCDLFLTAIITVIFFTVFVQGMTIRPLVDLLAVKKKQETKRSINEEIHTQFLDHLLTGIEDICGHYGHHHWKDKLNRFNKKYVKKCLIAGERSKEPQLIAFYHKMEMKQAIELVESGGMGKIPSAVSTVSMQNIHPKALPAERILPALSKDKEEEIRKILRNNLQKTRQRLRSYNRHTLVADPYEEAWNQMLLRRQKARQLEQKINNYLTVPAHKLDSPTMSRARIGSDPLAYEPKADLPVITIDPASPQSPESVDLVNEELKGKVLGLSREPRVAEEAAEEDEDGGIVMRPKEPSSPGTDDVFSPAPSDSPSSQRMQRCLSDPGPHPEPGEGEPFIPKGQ

What is called inhibition is the relative decrease from the control value, in per cent. Low values mean a response near the control, high ones a response far below the control. In turn, `CC(=O)Oc1ccccc1C(=O)O` [Acetylsalicylic acid, acetylsalicylic acid, reference compound] came in with an inhibition at 100 µM with rabbit platelets of 31.6 ± 4.6%.

As a reminder, the IC50 is the concentration that inhibits the measured activity by half. What is called CC50 is the concentration that lowers cell viability or growth by half. With `N=C(N)NC(=O)c1nc(Cl)c(N)nc1N` [Amiloride, amiloride, reference compound], in [1], the IC50 stood at 0.62 ± 0.05 µM. Besides, the “Max IOP Reduction” value in the series with rat intraocular pressure is recorded as 18.39 ± 14.58%. Further, the 50% cytotoxic concentration (CC50) in series [2] was above 100 µM. Besides, testing at 100 µM in the series with rabbit platelets gave an inhibition of 67.6 ± 1%. Besides, the “Immobilization Time” value with male ICR mice (2.6 mg/kg) is given as 172.7 ± 8.54 s. At rabbit platelet NHE-1, the inhibition at 0.01 µM was 5.39 ± 1.82% and the IC50 was 1230 nM.

In the case of `CN(C)CCC=C1c2ccccc2CCc2ccccc21` [Amitriptyline, amitriptyline], in the series with male ICR mice (10 mg/kg), the “Immobilization Time” value is 50.2 ± 12.71 s.

As usually defined, the melting point is the temperature, or range, at which the solid turns liquid. As for `N=C(N)NC(=O)Cn1c(=O)c2ccccc2n(CC(=O)NC(=N)N)c1=O` [Compound 3a, 2,2’-(2,4-Dioxoquinazoline-1,3(2H,4H)-diyl)bis(N-carbamimidoylacetamide)], the melting point fell in the range of 336 to 338 °C. Besides, in series [1], the concentration for half-maximal inhibition (IC50) is above 100 µM. Moreover, in the series with rat intraocular pressure, the “Max IOP Reduction” value is 10.08 ± 5.8% and the “IOP-lowering activity reduction relative to 4a” value is reported as 3 fold. Moreover, the IC50 in series [3] was above 100 µM. For the same compound, the cytotoxic concentration (CC50) in series [2] is above 100 µM. This compound also returned an inhibition at 100 µM with rabbit platelets of 44.3 ± 14.3%. Also, on rabbit platelet NHE-1, the inhibition at 0.01 µM amounted to 37.2 ± 5.97% and the “NHE-1 IC50” value is reported as “nanomolar range”.

For `N=C(N)NC(=O)Cn1c(=O)c2cc(Br)ccc2n(CC(=O)NC(=N)N)c1=O` [Compound 3b, 2,2’-(6-Bromo-2,4-dioxoquinazoline-1,3(2H,4H)-diyl)bis(N-carbamimidoylacetamide)], the melting point is above 400 °C. The IC50 in series [1] is above 100 µM. Further, in the series on rat intraocular pressure, the “Max IOP Reduction” value was 24.17 ± 5.05%. The IC50 in series [3] was above 100 µM. The CC50 in series [2] was above 100 µM. The inhibition at 100 µM in the series on rabbit platelets turned out to be 46.4 ± 9.2%. In addition, the inhibition at 0.01 µM at rabbit platelet NHE-1 was determined as 10.2 ± 3.72%.

For the compound `Nc1nnc(Cn2c(=O)c3cc(Br)ccc3n(Cc3nnc(N)[nH]3)c2=O)[nH]1` [Compound 4b, 1,3-Bis[(5-amino-4H-1,2,4-triazol-3-yl)methyl]-6-bromoquinazoline-2,4(1H,3H)-dione], the melting point is above 400 °C. Besides, the IC50 in series [1] worked out at 71 ± 4.89 µM. In the series on rat intraocular pressure, the “Max IOP Reduction” value was 15.45 ± 9.39% and the “IOP-lowering activity reduction relative to 4a” value came to 2 fold. The IC50 in series [3] came out at 64.8 ± 4.31 µM. Also, in [2], the cytotoxic concentration (CC50) is above 100 µM. Also, the inhibition at 100 µM in the series with rabbit platelets stood at 47.4 ± 8.9%. In the series on male ICR mice (4.9 mg/kg), the “Immobilization Time” value was 168.2 ± 19.52 s. Moreover, at rabbit platelet NHE-1, testing at 0.01 µM gave an inhibition of 16.2 ± 3.75%.

`C[C@@H]1C[C@H]2[C@@H]3CCC4=CC(=O)C=C[C@]4(C)[C@@]3(F)[C@@H](O)C[C@]2(C)[C@@]1(O)C(=O)CO` [Dexamethasone, dexamethasone, reference compound]: the IC50 in [1] amounted to 0.003 ± 0.001 µM. In addition, in series [4] (72 h of incubation), the “Mean number of phagocytosed particles per cell” value was 59% and the Phagocytic activity is 41 % from control. Besides, the “Macrophage spreading (visually scored)” value in series [4] (yeast-treated macrophages, 72 h) is listed as “more evident”. The IC50 in [3] is 0.003 ± 0.001 µM. Further, the CC50 in series [2] was above 100 µM. Moreover, in [5], the “Cell viability (LDH assay)” value is listed as “did not influence cell viability”. The “Exploratory activity, open field test” value with C57bl/6j mice was “comparably improved exploratory activity”. Further, the “Motor activity, open field test” value in the series with C57bl/6j mice (2 and 22 h after LPS) was “reduced the LPS-induced motor and behavioral alterations”. Also, in the series with C57bl/6j mice (24 h after LPS), the “CD68+ macrophage accumulation in lung tissue (immunostaining)” value is “significantly reduced this phenomenon”, the “Plasma IL-6” value is “significantly reduced plasma IL-6” and the “Segmented neutrophils in BAL” value is given as “significantly ameliorated the accumulation of segmented neutrophils”.

`CN(C)CCCN1c2ccccc2CCc2ccccc21` [Imipramine, imipramine]: the “Immobilization Time” value in the series with male ICR mice (8 mg/kg) is recorded as 112.5 ± 20.56 s.

Usually EC50 stands for the concentration needed to bring the measured effect to its halfway point. Consider `N=C(N)NC(=O)c1cnn(-c2cccc3ncccc23)c1C1CC1` [Zoniporide, zoniporide, reference compound], for which, in series [1] (printed as EC50 in the IC50 column, read-out: NO Synthesis EC50 ± SE), the EC50 was determined as 15.6 µM. For the same compound, in series [3], the IC50 is above 100 µM. In addition, the CC50 in series [2] amounted to 407 ± 27.6 µM.
